Experimental findings from patent US20200377481A1, “SUBSTITUTED 4-(1-PYRROLIDINYL)PYRIMIDINE COMPOUNDS AS DIMERIZATION INHIBITORS OF NEURONAL NITRIC OXIDE SYNTHASE” (Northwestern University, priority 2016, published 2020) are described below.

What is called IC50 is the midpoint of a concentration-inhibition curve. Low readings indicate higher potency, high ones lower potency.

The target of one assay is T1, nNOS (Rattus norvegicus, UniProt P29476).
T1 construct: expressed in transfected cells; host or cells: HEK293 (stably transduced, G418 selection)
The assay can be described thus: nNOS Dimerization Inhibition assay (Griess, Hek293 cells expressing rat nNOS). The assay is classed as cell-based. On the procedure:
(§1) nNOS Dimerization Inhibition assay. Hek293 cells stably transduced to express rat nNOS were grown to confuency in DMEM supplemented with 10% FBS, pen/strep and 0.4 mg/mL G418. Cells were then plated into 96 well plates at 50,000 cells per well. After 12 h of growth a serial dilution of test compound was added with a vehicle control leaving one additional lane empty as a second activator control. Compounds and cells were allowed to interact for 48 h to allow for full degradation of undrugged active dimeric species. After 48 h […] of a 10 mM calcium ionophore stock was added. After 4 h, 50 uL of the media from each well was removed and mixed with 50 uL Griess Reagent 1 (Promega Griess assay kit). This mixture was incubated for 5 mins and then 50 uL Reagent 2 was added. The plate was read at 530 nm and an IC50 calculated.
On the technique in general: Nitrite, measured by Griess reagent, commonly stands in for NO production.

In another assay the target is T2, eNOS (Bos taurus, UniProt P29473).
T2 construct: expressed in transfected cells; host or cells: HEK293 (stably transduced)
T2 sequence (P29473 1-1205): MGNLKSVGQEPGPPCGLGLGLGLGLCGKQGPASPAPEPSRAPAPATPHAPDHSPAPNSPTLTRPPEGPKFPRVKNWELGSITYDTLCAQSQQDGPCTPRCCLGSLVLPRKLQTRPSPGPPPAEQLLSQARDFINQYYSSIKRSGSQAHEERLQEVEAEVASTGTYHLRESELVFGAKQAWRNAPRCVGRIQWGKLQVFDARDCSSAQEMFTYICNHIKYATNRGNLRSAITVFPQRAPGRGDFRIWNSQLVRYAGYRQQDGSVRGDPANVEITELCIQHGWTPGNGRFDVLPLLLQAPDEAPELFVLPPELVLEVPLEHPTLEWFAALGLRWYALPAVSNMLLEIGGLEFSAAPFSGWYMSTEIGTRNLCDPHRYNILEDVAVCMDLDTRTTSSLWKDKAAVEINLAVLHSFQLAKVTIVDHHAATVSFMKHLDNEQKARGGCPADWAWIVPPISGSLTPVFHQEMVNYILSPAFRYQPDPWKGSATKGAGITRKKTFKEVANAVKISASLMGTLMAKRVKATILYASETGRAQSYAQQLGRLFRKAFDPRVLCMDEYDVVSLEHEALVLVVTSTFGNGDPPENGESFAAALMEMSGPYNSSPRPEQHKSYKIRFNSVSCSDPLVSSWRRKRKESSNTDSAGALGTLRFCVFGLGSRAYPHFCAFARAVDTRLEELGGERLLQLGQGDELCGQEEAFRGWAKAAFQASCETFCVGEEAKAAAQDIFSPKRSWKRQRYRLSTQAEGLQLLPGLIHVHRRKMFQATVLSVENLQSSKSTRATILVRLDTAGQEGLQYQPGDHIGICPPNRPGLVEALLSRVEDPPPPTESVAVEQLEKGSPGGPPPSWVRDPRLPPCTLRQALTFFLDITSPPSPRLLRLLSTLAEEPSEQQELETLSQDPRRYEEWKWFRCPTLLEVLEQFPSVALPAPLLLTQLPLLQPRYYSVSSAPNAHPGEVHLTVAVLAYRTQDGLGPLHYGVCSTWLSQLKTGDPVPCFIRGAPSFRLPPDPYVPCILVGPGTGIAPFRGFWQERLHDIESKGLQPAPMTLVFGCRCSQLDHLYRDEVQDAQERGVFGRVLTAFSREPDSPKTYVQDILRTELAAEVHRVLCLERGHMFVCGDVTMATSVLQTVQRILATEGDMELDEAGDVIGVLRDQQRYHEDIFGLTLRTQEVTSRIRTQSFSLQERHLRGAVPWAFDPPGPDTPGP
Put plainly: eNOS Dimerization Inhibition assay (Griess, Hek293 cells expressing bovine eNOS). The assay is classed as cell-based. The procedure:
as §1
eNOS Dimerization Inhibition assay. The nNOS protocol was followed substituting Hek293 cells stably transduced to express bovine eNOS

A further assay addresses T3, iNOS (Mus musculus, UniProt P29477).
T3 construct: endogenous in cells; host or cells: Raw 264.7 cells stimulated with E. coli LPS and IFN-gamma
T3 sequence (P29477 1-1144): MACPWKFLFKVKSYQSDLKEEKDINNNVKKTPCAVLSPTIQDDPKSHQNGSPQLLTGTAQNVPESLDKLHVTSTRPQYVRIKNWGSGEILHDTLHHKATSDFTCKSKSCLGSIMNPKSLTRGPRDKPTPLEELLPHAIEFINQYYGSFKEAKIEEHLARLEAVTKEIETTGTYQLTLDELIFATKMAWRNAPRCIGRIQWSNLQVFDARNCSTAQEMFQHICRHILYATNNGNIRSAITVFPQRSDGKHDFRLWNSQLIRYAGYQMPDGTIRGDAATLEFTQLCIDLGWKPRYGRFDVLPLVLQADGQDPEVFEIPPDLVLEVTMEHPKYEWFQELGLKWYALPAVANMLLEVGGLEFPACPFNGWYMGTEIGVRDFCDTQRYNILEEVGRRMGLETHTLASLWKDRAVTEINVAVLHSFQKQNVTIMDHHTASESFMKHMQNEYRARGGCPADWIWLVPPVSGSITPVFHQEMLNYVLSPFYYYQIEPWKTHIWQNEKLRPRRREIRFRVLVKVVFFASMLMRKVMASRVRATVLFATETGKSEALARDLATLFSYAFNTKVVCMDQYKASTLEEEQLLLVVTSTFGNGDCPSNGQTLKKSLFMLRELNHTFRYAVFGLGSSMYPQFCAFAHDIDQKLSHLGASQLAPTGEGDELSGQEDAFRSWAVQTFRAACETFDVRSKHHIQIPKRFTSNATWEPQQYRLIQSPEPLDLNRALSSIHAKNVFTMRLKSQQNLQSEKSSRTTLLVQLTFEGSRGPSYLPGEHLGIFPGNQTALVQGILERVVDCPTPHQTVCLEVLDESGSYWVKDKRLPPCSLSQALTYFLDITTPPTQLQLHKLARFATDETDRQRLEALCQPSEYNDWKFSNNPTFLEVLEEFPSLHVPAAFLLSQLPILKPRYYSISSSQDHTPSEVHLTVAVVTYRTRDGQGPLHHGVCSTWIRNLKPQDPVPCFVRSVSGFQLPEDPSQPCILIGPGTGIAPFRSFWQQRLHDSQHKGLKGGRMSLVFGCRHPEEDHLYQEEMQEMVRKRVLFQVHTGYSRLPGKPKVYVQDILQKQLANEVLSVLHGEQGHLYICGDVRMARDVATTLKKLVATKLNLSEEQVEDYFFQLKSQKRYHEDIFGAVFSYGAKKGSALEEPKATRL
The assay can be described thus: iNOS Dimerization Inhibition assay (Griess, Raw 264.7 cells, LPS/IFN-γ). In kind it is cell-based, murine. The procedure: iNOS Dimerization Inhibition assay. Raw 264.7 cells were grown to confuency in DMEM supplemented with 10% FBS and pen/strep. Cells were then plated into 96 well plates at 50,000 cells per well. After 12h of growth a serial dilution of test compound was added along with e.coli LPS (50 ug/ml final) and IFN-Y (500 ng/ml final) with a vehicle control. Compounds and cells were allowed to interact for 48 h to allow for full degradation of undrugged active dimeric species. After 48 h, 50 uL of the media from each well was removed and mixed with 50 uL Griess Reagent 1 (Promega Griess assay kit). This mixture was incubated for 5 mins and then 50 uL Reagent 2 was added. The plate was read at 530 nm and an IC50 calculated.

T1 sequence (P29476 whole entry): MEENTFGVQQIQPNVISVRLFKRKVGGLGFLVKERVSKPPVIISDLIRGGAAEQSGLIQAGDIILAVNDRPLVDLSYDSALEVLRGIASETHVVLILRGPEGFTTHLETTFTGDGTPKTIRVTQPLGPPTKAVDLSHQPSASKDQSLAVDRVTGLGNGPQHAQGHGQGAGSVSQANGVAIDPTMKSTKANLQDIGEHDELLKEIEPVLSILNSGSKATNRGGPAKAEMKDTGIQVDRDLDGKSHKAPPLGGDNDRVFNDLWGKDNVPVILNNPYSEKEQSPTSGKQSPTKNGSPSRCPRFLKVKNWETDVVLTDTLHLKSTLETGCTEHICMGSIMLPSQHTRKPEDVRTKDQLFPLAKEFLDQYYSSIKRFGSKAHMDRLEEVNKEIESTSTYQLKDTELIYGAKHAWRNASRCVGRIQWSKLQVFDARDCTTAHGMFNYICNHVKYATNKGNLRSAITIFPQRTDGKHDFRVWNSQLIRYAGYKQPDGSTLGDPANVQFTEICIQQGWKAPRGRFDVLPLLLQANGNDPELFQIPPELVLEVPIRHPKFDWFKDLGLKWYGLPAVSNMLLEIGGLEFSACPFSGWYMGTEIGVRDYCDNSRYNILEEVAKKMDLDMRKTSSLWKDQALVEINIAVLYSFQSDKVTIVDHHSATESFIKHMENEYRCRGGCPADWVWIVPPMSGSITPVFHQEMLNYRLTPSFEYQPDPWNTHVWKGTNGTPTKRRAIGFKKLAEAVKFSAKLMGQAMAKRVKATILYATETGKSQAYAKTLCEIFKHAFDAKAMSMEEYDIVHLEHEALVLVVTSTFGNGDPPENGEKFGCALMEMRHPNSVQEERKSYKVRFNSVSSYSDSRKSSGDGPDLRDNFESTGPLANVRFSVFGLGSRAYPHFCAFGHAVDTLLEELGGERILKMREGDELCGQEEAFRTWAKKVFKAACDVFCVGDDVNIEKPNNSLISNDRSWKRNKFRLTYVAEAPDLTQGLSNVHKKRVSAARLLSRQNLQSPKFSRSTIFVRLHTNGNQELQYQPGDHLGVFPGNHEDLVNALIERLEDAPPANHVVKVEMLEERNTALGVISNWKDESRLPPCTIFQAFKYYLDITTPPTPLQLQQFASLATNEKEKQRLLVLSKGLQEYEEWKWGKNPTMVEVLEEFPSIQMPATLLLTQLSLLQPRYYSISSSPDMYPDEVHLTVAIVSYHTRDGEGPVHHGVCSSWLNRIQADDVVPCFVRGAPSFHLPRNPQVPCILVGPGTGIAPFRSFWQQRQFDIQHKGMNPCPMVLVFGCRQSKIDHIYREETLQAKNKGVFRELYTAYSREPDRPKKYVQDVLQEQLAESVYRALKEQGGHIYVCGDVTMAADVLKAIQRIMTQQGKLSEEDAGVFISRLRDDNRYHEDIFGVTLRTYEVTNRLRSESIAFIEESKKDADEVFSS

For the compound “(R)-2-[2-(1H-imidazol-1-yl)-4-pyrimidylpyrrolidin-2-yl]-N-(3-benzyl-4-methoxybenzyl)acetamide [Compound 5]”, the IC50 was 14.1 µM at nNOS, 55 µM against eNOS and 6 µM against iNOS.

For `COc1ccc(CNC(=O)C[C@H]2CCCN2c2ccnc(-n3ccnc3)n2)cc1OC` [Compound 2, (R)-2-[2-(1H-imidazol-1-yl)-4-pyrimidylpyrrolidin-2-yl]-N-(3,4-dimethoxybenzyl) acetamide], the IC50 against nNOS was 0.14 µM; on eNOS it was 21.1 µM; at iNOS it was 0.62 µM.

Take “(R)-2-[2-(1H-imidazol-1-yl)-4-pyrimidylpyrrolidin-2-yl]-N-(4-methoxy-3-n-propylbenzyl)acetamide [Compound 4]”: the IC50 was determined as 7.4 µM at nNOS, 86 µM against eNOS and 4.5 µM against iNOS.

Take `CCOc1cc(CNC(=O)C[C@H]2CCCN2c2ccnc(-n3ccnc3)n2)ccc1OC` [Compound 3, (R)-2-[2-(1H-imidazol-1-yl)-4-pyrimidylpyrrolidin-2-yl]-N-(3-ethoxy-4-methoxybenzy)acetamide]: the IC50 against nNOS turned out to be 6.7 µM; against eNOS it was 57 µM; against iNOS it was 3.7 µM.

Regarding `O=C(C[C@H]1CCCN1c1ccnc(-n2ccnc2)n1)NCc1ccc2c(c1)OCO2` [Compound 1, (R)-2-[2-(1H-imidazol-1-yl)-4-pyrimidylpyrrolidin-2-yl)-N-(benzo[d][1,3]dioxo-5-ylmethyl)acetamide], the values for the half-inhibitory concentration (IC50) at nNOS, on eNOS and on iNOS were 0.2 µM, 18 µM and 0.1 µM, respectively.
